According to patent US9353082B2, “Pharmaceutical compounds” (BIAL—PORTELA & CA, S.A., priority 2008, dated 2016):

Molecular target: T1, FAAH (Rattus norvegicus, UniProt P97612)
T1 construct: Frozen brains (without cerebellum) from Wistar rats were used; from tissue; host or cells: Wistar rat brain (without cerebellum), washed membrane pellets
T1 sequence (P97612 1-579): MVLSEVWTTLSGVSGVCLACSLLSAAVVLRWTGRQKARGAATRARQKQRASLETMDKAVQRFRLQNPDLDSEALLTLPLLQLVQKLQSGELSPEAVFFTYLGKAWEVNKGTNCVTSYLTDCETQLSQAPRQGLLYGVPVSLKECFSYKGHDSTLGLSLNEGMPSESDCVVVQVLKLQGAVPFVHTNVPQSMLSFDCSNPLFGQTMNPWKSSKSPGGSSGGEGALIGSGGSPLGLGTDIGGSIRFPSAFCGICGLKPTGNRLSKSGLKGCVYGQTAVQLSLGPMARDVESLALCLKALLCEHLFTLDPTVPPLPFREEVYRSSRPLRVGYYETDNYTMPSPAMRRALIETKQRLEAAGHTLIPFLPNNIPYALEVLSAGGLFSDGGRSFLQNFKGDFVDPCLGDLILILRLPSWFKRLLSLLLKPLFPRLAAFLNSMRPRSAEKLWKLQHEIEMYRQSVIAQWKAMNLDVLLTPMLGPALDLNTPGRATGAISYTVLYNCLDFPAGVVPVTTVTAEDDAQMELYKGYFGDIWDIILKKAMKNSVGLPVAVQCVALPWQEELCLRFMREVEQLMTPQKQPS
Assay: In vitro FAAH activity in rat brain membranes, 3H-AEA substrate, % of control
Type: biochemical, Wistar rats
Settings: low value = strong inhibitor; for In Vitro FAAH activity, 10 uM: 10 uM test compound; for In Vitro FAAH activity, 100 nM: 100 nM test compound
Experimental: 3. Biological Efficacy of Compounds of the Invention The in vitro test was performed according to the protocol described below. The controls for both in vitro and in vivo were the reaction mix minus the test compounds. Therefore, a low value in Table 1 below for the test compounds indicates a strong inhibitor.
The in vitro pharmaceutical FAAH activity was determined according to the following method:
Frozen brains (without cerebellum) from Wistar rats were used, and each brain was homogenized in 15 ml 1 mM MgCL2, […] HEPES pH 7.0 with Potter Elvejhem (8 strokes at 500 rpm). Homogenates were centrifuged for 20 min at 36000 g at 4° C. (Beckman, 70Ti rotor). Pellets were resuspended in 15 ml of the same buffer and centrifuged under the same conditions. Pellets were resuspended in 15 ml of the same buffer and incubated for 15 min at 37° C. after which they were centrifuged for 20 min at 36000 g at 4° C. Each pellet was then resuspended in 15 ml 3 mM MgCl2, 1 mM EDTA, 50 mM Tris pH 7.4 and protein determined with BioRad Protein Assay (BioRad) using a standard curve of BSA (50-250 μg/ml). The membrane suspensions were aliquoted and stored at −80° C.
The FAAH activity was determined using AEA (labelled with 3H in the ethanolamine part of the molecule) as substrate and measuring the 3H-ethanolamine formed. Reaction mix (total volume of 200 up contained: 2 μM AEA (2 μM AEA+5 nM 3H-AEA), 0.1% fatty acid free BSA, 5 μg protein, in 1 mM EDTA, 10 mM Tris pH 7.6 and 10 μM or 0.1 μM compounds. Stock solutions of the compounds to test (10 mM) were prepared in 100% DMSO and the DMSO concentration in the assay was 0.1%. After a 15 min preincubation period at 37° C., reaction was started by the addition of the substrate solution ([…]). Reaction was carried out for 10 min before termination by the addition of 400 μl activated charcoal suspension (8 g charcoal in 32 ml 0.5 M HCl in continuous agitation). After a 30 min incubation period at room temperature with agitation, charcoal was sedimented by centrifugation in microfuge (10 min at 13000 rpm). 200 μl of the supernatant were added to 800 μl Optiphase Supermix scintillation cocktail previously distributed in 24-well plates. Counts per minute (cpm) were determined in Microbeta TriLux scintillation counter (10 min counting or until s=2).
In each assay blanks (no protein, usually below 200 cpm) and controls (no compound) were present. The results are reported in Table 1 as % of control after blank subtraction.

Structure (SMILES) | In Vitro FAAH activity, 10 uM | In Vitro FAAH activity, 100 nM
CN(C(=O)n1ccc(-c2ccc(-c3ccccc3)cc2)n1)c1ccccc1 [Compound 25, 3-(biphenyl-4-yl)-N-methyl-N-phenyl-1H-pyrazole-1-carboxamide] | 99 % of control | –
CN(C(=O)n1ccnc1-c1ccccc1)c1ccccc1 [Compound 26, N-methyl-N,2-diphenyl-1H-imidazole-1-carboxamide] | 92.6 % of control | –
CC(C)(C)N(Cc1ccccc1)C(=O)n1cnc(-c2ccc(Cl)cc2)c1 [Compound 252, N-benzyl-N-tert-butyl-4-(4-chlorophenyl)-1H-imidazole-1-carboxamide] | – | 83.6 % of control
CN(C(=O)n1cnc(-c2ccccc2F)c1)c1ccccc1 [Compound 30, 4-(2-fluorophenyl)-N-methyl-N-phenyl-1H-imidazole-1-carboxamide] | 0.1 % of control | 72.5 % of control
C[C@@H]1CCC[C@H](C)N1C(=O)n1nnc2ccccc21 [Compound 173, (1H-benzo[d][1,2,3]triazol-1-yl)((2R,6S)-2,6-dimethylpiperidin-1-yl)methanone] | – | 70.6 % of control
COc1cccc(CN(C)C(=O)n2nnc3ccccc32)c1 [Compound 119, N-(3-methoxybenzyl)-N-methyl-1H-benzo[d][1,2,3]triazole-1-carboxamide] | – | 0 % of control
CN(C(=O)n1cnc(-c2ccccc2)c1)C1CCCCC1 [Compound 103, N-cyclohexyl-N-methyl-4-phenyl-1H-imidazole-1-carboxamide] | 0 % of control | 37.5 % of control
CCCCOc1ccc(OC2CCN(C(=O)n3nnc4ccccc43)CC2)cc1 [Compound 168, (1H-benzo[d][1,2,3]triazol-1-yl)(4-(4-butoxyphenoxy)piperidin-1-yl)methanone] | – | 0 % of control
O=C(N1Cc2ccccc2C1)n1nnc2ccccc21 [Compound 174, (1H-benzo[d][1,2,3]triazol-1-yl)(isoindolin-2-yl)methanone] | – | 0.7 % of control
O=C(N1CCCC1)n1nnc2ccccc21 [Compound 98, (1H-benzo[d][1,2,3]triazol-1-yl)(pyrrolidin-1-yl)methanone] | – | 0.6 % of control
CCC1CN(C(=O)n2cnc(-c3ccccc3)c2)C(C)(C)O1 (stereo not shown) [Compound 270, (5-ethyl-2,2-dimethyloxazolidin-3-yl)(4-phenyl-1H-imidazol-1-yl)methanone] | – | 113.1 % of control
Cl.O=C(N1CCC(N2CCCC2)CC1)n1nnc2ccccc21 [Compound 92, (1H-benzo[d][1,2,3]triazol-1-yl)(4-(pyrrolidin-1-yl)piperidin-1-yl)methanone hydrochloride] | – | 96 % of control
Cl.O=C(N1CCC(N2CCOCC2)CC1)n1nnc2ccccc21 [Compound 90, (1H-benzo[d][1,2,3]triazol-1-yl)(4-morpholinopiperidin-1-yl)methanone hydrochloride] | – | 38.6 % of control
O=C(N1CCOCC1)n1ccc2cc(O)ccc21 [Compound 52, (5-hydroxy-1H-indol-1-yl)(morpholino)methanone] | – | 102.7 % of control
NC(=O)c1ccc(-c2cn(C(=O)N3CCN(Cc4ccccc4)CC3)cn2)cc1 [Compound 112, 4-(1-(4-benzylpiperazine-1-carbonyl)-1H-imidazol-4-yl)benzamide] | – | 7.2 % of control
O=C(N1CCN(c2ccc(F)cc2)CC1)n1cnc(-c2ccc(Cl)cc2)c1 [Compound 223, (4-(4-chlorophenyl)-1H-imidazol-1-yl)(4-(4-fluorophenyl)piperazin-1-yl)methanone] | – | 1.1 % of control
CN(C(=O)n1cnc(-c2cccc(-c3cc(Cl)ccc3F)c2)c1)C1CCCCC1 [Compound 259, 4-(5′-chloro-2′-fluorobiphenyl-3-yl)-N-cyclohexyl-N-methyl-1H-imidazole-1-carboxamide] | – | 33.7 % of control

Other lines, results leading:

In Vitro FAAH activity, 10 uM | In Vitro FAAH activity, 100 nM | Structure (SMILES)
– | 80.8 % of control | CN(C(=O)n1cnc(-c2ccc(Cl)cc2)n1)c1ccc(F)cc1 [Compound 69, 3-(4-chlorophenyl)-N-(4-fluorophenyl)-N-methyl-1H-1,2,4-triazole-1-carboxamide]
– | 0 % of control | O=C(N1CCC(c2ccccc2)CC1)n1nnc2ccccc21 [Compound 94, (1H-benzo[d][1,2,3]triazol-1-yl)(4-phenylpiperidin-1-yl)methanone]
– | 0.1 % of control | CCN(CCOCc1ccccc1)C(=O)n1nnc2ccccc21 [Compound 202, N-(2-(benzyloxy)ethyl)-N-ethyl-1H-benzo[d][1,2,3]triazole-1-carboxamide]
13.2 % of control | – | CN(C(=O)n1cccn1)c1ccccc1 [Compound 8, N-methyl-N-phenyl-1H-pyrazole-1-carboxamide]
– | 0.2 % of control | O=C(N1CCN(c2ccc(O)cc2)CC1)n1nnc2ccccc21 [Compound 136, (1H-benzo[d][1,2,3]triazol-1-yl)(4-(4-hydroxyphenyl)piperazin-1-yl)methanone]
– | 91 % of control | CN(C(=O)n1cnc(-c2ccc(O)cc2)c1)c1ccc(F)cc1 [Compound 54, N-(4-fluorophenyl)-4-(4-hydroxyphenyl)-N-methyl-1H-imidazole-1-carboxamide]
– | 61 % of control | CN(C(=O)n1cnc(-c2ccc(Cl)cc2)n1)c1ccccc1 [Compound 67, 3-(4-chlorophenyl)-N-methyl-N-phenyl-1H-1,2,4-triazole-1-carboxamide]
– | 6.9 % of control | CCOC(=O)N1CCN(C(=O)n2nnc3ccccc32)CC1 [Compound 177, ethyl 4-(1H-benzo[d][1,2,3]triazole-1-carbonyl)piperazine-1-carboxylate]
0.1 % of control | 88 % of control | CN(C(=O)n1cnc(-c2ccc(Cl)cc2)c1)c1ccc(F)cc1 [Compound 43, 4-(4-chlorophenyl)-N-(4-fluorophenyl)-N-methyl-1H-imidazole-1-carboxamide]
– | 0 % of control | CN(C(=O)n1nnc2ccc(O)cc21)C1CCCCC1 [Compound 242, N-cyclohexyl-6-hydroxy-N-methyl-1H-benzo[d][1,2,3]triazole-1-carboxamide]
– | 0.3 % of control | O=C(N1CCN(C2CCCCC2)CC1)n1cnc(-c2ccc(F)c(F)c2)c1 [Compound 201, (4-cyclohexylpiperazin-1-yl)(4-(3,4-difluorophenyl)-1H-imidazol-1-yl)methanone]
– | 2.5 % of control | CN1CCN(C(=O)n2nnc3ccccc32)CC1.Cl [Compound 83, (1H-benzo[d][1,2,3]triazol-1-yl)(4-methylpiperazin-1-yl)methanone hydrochloride]
– | 97.2 % of control | COc1ccc2c(ccn2C(=O)N2CCOCC2)c1 [Compound 47, (5-methoxy-1H-indol-1-yl)(morpholino)methanone]
– | 0 % of control | CN(Cc1ccc2ccccc2c1)C(=O)n1nnc2ccccc21 [Compound 131, N-methyl-N-(naphthalen-2-ylmethyl)-1H-benzo[d][1,2,3]triazole-1-carboxamide]
